Test results from PMC9161374 (Science Translational Medicine, 2022).
pEC50: −log10 of the molar value. Several values for one entry are separate records, joined by “and”; a condition that tells them apart may be missing. Equal entries are not always repeated.

Columns and labels:
Vero E6 cells = assay: CCK-8 cell viability assay; assay type: cell-based, African green monkey; details: individual replicate values, Fig.S4
In short: (§1)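 Vero E6 cells, 20,000/well, exposed to compound at 0–200 μM (0, 0.01, 0.1, 1, 5, 10, 50, 75, 100, 200 μM) for 48 h; viability read by CCK-8 and expressed as percentage versus drug concentration, mean ± SD.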

[1] = CCK-8 cell viability assay; assay type: cell-based, African green monkey; details: African green monkey; Vero E6 cells, 48 h, CCK8
In short: as §1

[2] = system: SARS-CoV-2 (B.1) in Huh7 cells; assay: Anti-SARS-CoV-2 activity in Huh7 cells (viral yield by qRT-PCR); assay type: cell-based; details: B.1, MOI 0.05, 48 h
[3] = system: SARS-CoV-2 (Beta, B.1.351); assay: microbe, parasite or virus in culture; assay type: cell-based; details: for % Inhibition: beta
[4] = system: SARS-CoV-2 replicon system (pBAC-SARS-CoV-2-Replicon-Luc); assay: microbe, parasite or virus in culture; assay type: cell-based; details: Severe acute respiratory syndrome coronavirus 2, HEK-293T, 60 h
SARS-CoV-2 (B.1) = assay: Anti-SARS-CoV-2 activity in Vero E6 cells (viral yield by qRT-PCR); assay type: cell-based
[5] = system: SARS-CoV-2 (Delta, B.1.617.2); assay: microbe, parasite or virus in culture; assay type: cell-based; details: for % Inhibition: delta

CCC(CC)C(=O)OC[C@H]1O[C@@](C#N)(c2ccc3c(N)ncnn23)[C@H](O)[C@@H]1O [ATV011]
cell viability (% of control) (Vero E6 cells; 0.01 μM compound, 0.01 µM): 118.751 % of control and 91.986 % of control and 93.878 % of control | cell viability (% of control) (Vero E6 cells; 0.1 μM compound, 0.1 µM): 121.196 % of control and 124.104 % of control and 115.797 % of control | cell viability (% of control) (Vero E6 cells; 1 μM compound, 1 µM): 117.043 % of control and 115.382 % of control and 124.473 % of control | cell viability (% of control) (Vero E6 cells; 2 μM compound, 2 µM): 120.919 % of control and 113.536 % of control and 114.367 % of control | cell viability (% of control) (Vero E6 cells; 5 μM compound, 5 µM): 138.178 % of control and 143.9 % of control and 139.562 % of control | cell viability (% of control) (Vero E6 cells; 10 μM compound, 10 µM): 141.085 % of control and 129.595 % of control and 122.535 % of control | cell viability (% of control) (Vero E6 cells; 50 μM compound, 50 µM): 76.4283 % of control and 65.5331 % of control and 77.184 % of control | CC50 at 48 h [1]: > 50000 nM | pEC50 ([2]; Severe acute respiratory syndrome coronavirus 2, Huh-7, read-out: EC50 (Confidence 95%) in Huh7 cells): 6.08 | EC90 ([2]; Severe acute respiratory syndrome coronavirus 2, Huh-7, read-out: EC90 (Confidence 95%) in Huh7 cells): 1010 nM | pEC50 ([3]; Severe acute respiratory syndrome coronavirus 2, Vero C1008, 48 h, read-out: EC50 in Vero E6 cells, SARS-CoV-2 (Beta, B.1.351)): 5.64 | inhibition at 0.01 µM ([3]; Severe acute respiratory syndrome coronavirus 2, Vero C1008, beta, 0.01 uM, Vero E6, replicates): 0% | inhibition at 0.1 µM ([3]; Severe acute respiratory syndrome coronavirus 2, Vero C1008, beta, 0.1 uM, Vero E6, replicates): 0% | inhibition at 0.25 µM ([3]; Severe acute respiratory syndrome coronavirus 2, Vero C1008, beta, 0.25 uM, Vero E6, replicates): 0% | inhibition at 0.5 µM ([3]; Severe acute respiratory syndrome coronavirus 2, Vero C1008, beta, 0.5 uM, Vero E6, replicates): 0% | inhibition at 1 µM ([3]; Severe acute respiratory syndrome coronavirus 2, Vero C1008, beta, 1 uM, Vero E6, replicates): 0% | inhibition at 2 µM ([3]; Severe acute respiratory syndrome coronavirus 2, Vero C1008, beta, 2 uM, Vero E6, replicates): 29.7% | inhibition at 5 µM ([3]; Severe acute respiratory syndrome coronavirus 2, Vero C1008, beta, 5 uM, Vero E6, replicates): 99.6% | inhibition at 10 µM ([3]; Severe acute respiratory syndrome coronavirus 2, Vero C1008, beta, 10 uM, Vero E6, replicates): 99.9% | inhibition at 50 µM ([3]; Severe acute respiratory syndrome coronavirus 2, Vero C1008, beta, 50 uM, Vero E6, replicates): 99.9% | EC90 ([3]; Severe acute respiratory syndrome coronavirus 2, Vero C1008, read-out: EC90 (Confidence 95%), Vero-E6, Beta B.1.351): 2950 nM | % Inhibition ([3]; 0.01 uM, Vero E6, replicates): 0% | % Inhibition ([3]; 0.1 uM, Vero E6, replicates): 0% | % Inhibition ([3]; 0.25 uM, Vero E6, replicates): 0% | % Inhibition ([3]; 0.5 uM, Vero E6, replicates): 0% | % Inhibition ([3]; 1 uM, Vero E6, replicates): 0% | % Inhibition ([3]; 2 uM, Vero E6, replicates): 22.548% | % Inhibition ([3]; 5 uM, Vero E6, replicates): 99.5042% | % Inhibition ([3]; 10 uM, Vero E6, replicates): 99.9468% | % Inhibition ([3]; 50 uM, Vero E6, replicates): 99.9524% | pEC50 ([4]; read-out: EC50 (Confidence 95%), replicon): 6.49 | EC90 ([4]; read-out: EC90 (Confidence 95%), replicon): 384 nM | % Inhibition (SARS-CoV-2 (B.1); 0.1 μM, replicates, sheet Fig.S3): 0% | % Inhibition (SARS-CoV-2 (B.1); 0.5 μM, replicates, sheet Fig.S3): 0% | % Inhibition (SARS-CoV-2 (B.1); 1 μM, replicates, sheet Fig.S3): 78.517% | % Inhibition (SARS-CoV-2 (B.1); 2 μM, replicates, sheet Fig.S3): 79.6525% | % Inhibition (SARS-CoV-2 (B.1); 5 μM, replicates, sheet Fig.S3): 91.2053% | % Inhibition (SARS-CoV-2 (B.1); 10 μM, replicates, sheet Fig.S3): 90.9393% | % Inhibition (SARS-CoV-2 (B.1); B.1, 0.01 uM, Vero E6, replicates): 0% | % Inhibition (SARS-CoV-2 (B.1); B.1, 0.1 uM, Vero E6, replicates): 0% | % Inhibition (SARS-CoV-2 (B.1); B.1, 0.25 uM, Vero E6, replicates): 0% | % Inhibition (SARS-CoV-2 (B.1); B.1, 0.5 uM, Vero E6, replicates): 0% | % Inhibition (SARS-CoV-2 (B.1); B.1, 1 uM, Vero E6, replicates): 0% | % Inhibition (SARS-CoV-2 (B.1); B.1, 2 uM, Vero E6, replicates, 2 µM): 3.841% and 72.4491% | % Inhibition (SARS-CoV-2 (B.1); B.1, 5 uM, Vero E6, replicates, 5 µM): 99.7181% | % Inhibition (SARS-CoV-2 (B.1); B.1, 10 uM, Vero E6, replicates, 10 µM): 99.9819% | % Inhibition (SARS-CoV-2 (B.1); B.1, 50 uM, Vero E6, replicates, 50 µM): 99.9874% | inhibition at 0.1 µM (SARS-CoV-2 (B.1); Severe acute respiratory syndrome coronavirus 2, Vero C1008, 0.1 μM, replicates, sheet Fig.S3): 0% | inhibition at 0.5 µM (SARS-CoV-2 (B.1); Severe acute respiratory syndrome coronavirus 2, Vero C1008, 0.5 μM, replicates, sheet Fig.S3): 0% | inhibition at 1 µM (SARS-CoV-2 (B.1); Severe acute respiratory syndrome coronavirus 2, Vero C1008, 1 μM, replicates, sheet Fig.S3): 77.4% | inhibition at 2 µM (SARS-CoV-2 (B.1); Severe acute respiratory syndrome coronavirus 2, Vero C1008, 2 μM, replicates, sheet Fig.S3): 78% | inhibition at 5 µM (SARS-CoV-2 (B.1); Severe acute respiratory syndrome coronavirus 2, Vero C1008, 5 μM, replicates, sheet Fig.S3): 93.5% | inhibition at 10 µM (SARS-CoV-2 (B.1); Severe acute respiratory syndrome coronavirus 2, Vero C1008, 10 μM, replicates, sheet Fig.S3): 93.2% | inhibition at 0.01 µM (SARS-CoV-2 (B.1); Severe acute respiratory syndrome coronavirus 2, Vero C1008, B.1, 0.01 uM, Vero E6, replicates): 0% | inhibition at 0.1 µM (SARS-CoV-2 (B.1); Severe acute respiratory syndrome coronavirus 2, Vero C1008, B.1, 0.1 uM, Vero E6, replicates): 0% | inhibition at 0.25 µM (SARS-CoV-2 (B.1); Severe acute respiratory syndrome coronavirus 2, Vero C1008, B.1, 0.25 uM, Vero E6, replicates): 0% | inhibition at 0.5 µM (SARS-CoV-2 (B.1); Severe acute respiratory syndrome coronavirus 2, Vero C1008, B.1, 0.5 uM, Vero E6, replicates): 0% | inhibition at 1 µM (SARS-CoV-2 (B.1); Severe acute respiratory syndrome coronavirus 2, Vero C1008, B.1, 1 uM, Vero E6, replicates): 0% | inhibition at 5 µM (SARS-CoV-2 (B.1); Severe acute respiratory syndrome coronavirus 2, Vero C1008, B.1, 5 uM, Vero E6, replicates): 99.5% | inhibition at 10 µM (SARS-CoV-2 (B.1); Severe acute respiratory syndrome coronavirus 2, Vero C1008, B.1, 10 uM, Vero E6, replicates): 99.9% | inhibition at 50 µM (SARS-CoV-2 (B.1); Severe acute respiratory syndrome coronavirus 2, Vero C1008, B.1, 50 uM, Vero E6, replicates): 99.9% | EC90 (SARS-CoV-2 (B.1); Severe acute respiratory syndrome coronavirus 2, Vero C1008, read-out: EC90 (Confidence 95%)): 2640 nM | pEC50 (SARS-CoV-2 (B.1); Severe acute respiratory syndrome coronavirus 2, Vero C1008, MOI 0.05, 48 h): 5.67 | pEC50 ([5]; Severe acute respiratory syndrome coronavirus 2, Vero C1008, 48 h, read-out: EC50 in Vero E6 cells, SARS-CoV-2 (Delta, B.1.617.2)): 6.39 | inhibition at 0.01 µM ([5]; Severe acute respiratory syndrome coronavirus 2, Vero C1008, delta, 0.01 uM, Vero E6, replicates): 0% | inhibition at 0.1 µM ([5]; Severe acute respiratory syndrome coronavirus 2, Vero C1008, delta, 0.1 uM, Vero E6, replicates): 0% | inhibition at 0.25 µM ([5]; Severe acute respiratory syndrome coronavirus 2, Vero C1008, delta, 0.25 uM, Vero E6, replicates): 18.8% | inhibition at 0.5 µM ([5]; Severe acute respiratory syndrome coronavirus 2, Vero C1008, delta, 0.5 uM, Vero E6, replicates): 74.2% | inhibition at 1 µM ([5]; Severe acute respiratory syndrome coronavirus 2, Vero C1008, delta, 1 uM, Vero E6, replicates): 83.5% | inhibition at 2 µM ([5]; Severe acute respiratory syndrome coronavirus 2, Vero C1008, delta, 2 uM, Vero E6, replicates): 94.4% | inhibition at 5 µM ([5]; Severe acute respiratory syndrome coronavirus 2, Vero C1008, delta, 5 uM, Vero E6, replicates): 94.6% | inhibition at 10 µM ([5]; Severe acute respiratory syndrome coronavirus 2, Vero C1008, delta, 10 uM, Vero E6, replicates): 99.9% | inhibition at 50 µM ([5]; Severe acute respiratory syndrome coronavirus 2, Vero C1008, delta, 50 uM, Vero E6, replicates): 100% | EC90 ([5]; Severe acute respiratory syndrome coronavirus 2, Vero C1008, read-out: EC90 (Confidence 95%), Vero-E6, Delta B.1.617.2): 842 nM | % Inhibition ([5]; 0.01 uM, Vero E6, replicates): 0% | % Inhibition ([5]; 0.1 uM, Vero E6, replicates): 0% | % Inhibition ([5]; 0.25 uM, Vero E6, replicates): 20.35% | % Inhibition ([5]; 0.5 uM, Vero E6, replicates): 62.851% | % Inhibition ([5]; 1 uM, Vero E6, replicates): 82.2323% | % Inhibition ([5]; 2 uM, Vero E6, replicates): 91.97% | % Inhibition ([5]; 5 uM, Vero E6, replicates): 91.6601% | % Inhibition ([5]; 10 uM, Vero E6, replicates): 99.4778% | % Inhibition ([5]; 50 uM, Vero E6, replicates): 99.7579%
